Reference: patent publication US20240425523A1, “Compounds for the Degradation of EGFR Kinase” (Beigene Switzerland GMBH, priority 2023, published 2024)

Columns and labels:
Format in all cases: cell-based
[1] = molecular target: T1, p-EGFR L858R (BaF3-L858R cells) (Homo sapiens, UniProt P00533, L858R); assay: Cell p-EGFR inhibition assay, HTRF, BaF3-L858R cells; details: 16 h treatment; for Imax (%): maximum percentage of pEGFR inhibition; for IC50: pEGFR inhibition
T1 construct: host or cells: BaF3
Method in brief: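 BaF3-L858R cells treated 16 h at 37 °C, 5% CO2 with compound from 10 uM top, 5-fold dilutions, 8 doses, in 0.1% DMSO medium. Lysates read overnight by HTRF p-EGFR antibodies; IC50 fitted to four-parameter curve against DMSO high control.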

[2] = molecular target: p-EGFR Del19/C797S (H1975-clone #23 cells) (Homo sapiens, UniProt P00533); assay: Cell p-EGFR inhibition assay, HTRF, H1975-clone#23 (DEL19/C797S) cells; details: 16 h treatment; for Imax (%): maximum percentage of pEGFR inhibition; for IC50: pEGFR inhibition
Method in brief: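 Phospho-EGFR read by overnight HTRF on lysates, normalized to DMSO-treated high control; IC50, Hill slope and Imax fitted. Compounds were applied for 16 h (10 uM top, 5-fold steps, 8 doses) to an H1975 single clone carrying only exogenous Del19/C797S EGFR after sgRNA knockout of endogenous copies.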

[3] = molecular target: T2, EGFR L858R (BaF3-L858R cells) (Homo sapiens, UniProt P00533, L858R); assay: Cell degradation of EGFR, HTRF assay, BaF3-L858R cells; details: 16 h treatment; for DC50: EGFR degradation; for Dmax: maximum percentage of degradation
T2 construct: host or cells: BaF3
Method in brief: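 BaF3-L858R cells treated 16 h at 37° C, 5% CO2 with compound (top 10 uM final, 5-fold, 8 doses, 0.1% DMSO). DC50 from four-parameter fit; Dmax is maximum percent degradation.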

[4] = molecular target: T3, EGFR-L858R/C797S (H1975-clone #8 cells) (Homo sapiens, UniProt P00533, C797S/L858R); assay: Cell degradation of EGFR, HTRF assay, H1975-clone#8 (L858R/C797S) cells; details: 16 h treatment; for DC50: EGFR degradation; for Dmax: maximum percentage of degradation
T3 construct: expressed in transfected cells; host or cells: H1975 (endogenous EGFR knocked out, clone #8)

Row | SMILES | Imax (%) [1] | IC50 [1] | Imax (%) [2] | IC50 [2] | DC50 [3] | Dmax [3] | DC50 [4] | Dmax [4]
1 | Cc1cc2cc(n1)-c1cnn(C)c1OC[C@H]1CCC(C1)CN1/C(=N/C2=O)Nc2ccc(N3CCN(C4CCN(c5ccc(NC6CCC(=O)NC6=O)cc5Cl)CC4)CC3)cc21 (stereo partly drawn) [Example 103, 3-((3-chloro-4-(4-(4-((7^1R,7^3S,E)-1^1,2^6-dimethyl-3-oxo-5^2,5^3-dihydro-1^1H,5^1H-9-oxa-4-aza-5(2,1)-benzo[d]imidazola-2(2,4)-pyridina-1(4,5)-pyrazola-7(1,3)-cyclopentanacyclononaphane-5^6-yl)piperazin-1-yl)piperidin-1-yl)phenyl)amino)piperidine-2,6-dione] | 95.6% | 16.3 nM | 102% | 0.8 nM | 3.38 nM | 81.6% | 2.53 nM | 83.3%
2 | COC[C@H]1CN(c2ccc3c(c2)N2CC4CC[C@H](COc5c(c(C(F)F)nn5C)-c5cc(cc(C)n5)C(=O)/N=C/2N3)C4)CCN1C1CCN(c2cc(F)c([C@H]3CCC(=O)NC3=O)c(F)c2)CC1 [Example 104, (R)-3-(4-(4-((R)-4-((7^1R,7^3S,E)-1^3-(difluoromethyl)-1^1,2^6-dimethyl-3-oxo-5^2,5^3-dihydro-1^1H,5^1H-9-oxa-4-aza-5(2,1)-benzo[d]imidazola-2(2,4)-pyridina-1(4,5)-pyrazola-7(1,3)-cyclopentanacyclononaphane-5^6-yl)-2-(methoxymethyl)piperazin-1-yl)piperidin-1-yl)-2,6-difluorophenyl)piperidine-2,6-dione] | 95% | 4.4 nM | 100.5% | 2 nM | 4.1 nM | 83.2% | 3.7 nM | 86.9%
3 | Cc1cc2cc(n1)-c1cnn(C)c1OC[C@H]1CCC(C1)CN1/C(=N/C2=O)Nc2ccc(N3CCN([C@@H]4CCN(c5ccc(C6CCC(=O)NC6=O)nc5C)CC4(F)F)CC3)cc21 (stereo partly drawn) [Example 105, 3-(5-((R)-4-(4-((7^1R,7^3S,E)-1^1,2^6-dimethyl-3-oxo-5^2,5^3-dihydro-1^1H,5^1H-9-oxa-4-aza-5(2,1)-benzo[d]imidazola-2(2,4)-pyridina-1(4,5)-pyrazola-7(1,3)-cyclopentanacyclononaphane-5^6-yl)piperazin-1-yl)-3,3-difluoropiperidin-1-yl)-6-methylpyridin-2-yl)piperidine-2,6-dione] | 93.9% | 10.1 nM | 100.1% | 0.7 nM | 3.68 nM | 82.7% | 4.09 nM | 85.2%
4 | COCC1(N2CCN(c3ccc4c(c3)N3CC5CC[C@H](COc6c(cnn6C)-c6cc(cc(C)n6)C(=O)/N=C/3N4)C5)CC2)CCN(c2ccc(C3CCC(=O)NC3=O)nc2C)CC1 (stereo partly drawn) [Example 106, 3-(5-(4-(4-((7^1R,7^3S,E)-1^1,2^6-dimethyl-3-oxo-5^2,5^3-dihydro-1^1H,5^1H-9-oxa-4-aza-5(2,1)-benzo[d]imidazola-2(2,4)-pyridina-1(4,5)-pyrazola-7(1,3)-cyclopentanacyclononaphane-5^6-yl)piperazin-1-yl)-4-(methoxymethyl)piperidin-1-yl)-6-methylpyridin-2-yl)piperidine-2,6-dione] | 97.6% | 16 nM | 99.8% | 0.8 nM | 6.69 nM | 82.5% | 2.45 nM | 83.3%
5 | COC[C@@H]1CN(c2ccc3c(c2)N2CC4CC[C@H](COc5c(cnn5C)-c5cc(cc(C)n5)C(=O)/N=C/2N3)C4)CCN1C1CN(C2CCN(c3cc(F)c([C@H]4CCC(=O)NC4=O)c(F)c3)CC2)C1 [Example 108, (R)-3-(4-(4-(3-((S)-4-((7^1R,7^3S,E)-1^1,2^6-dimethyl-3-oxo-5^2,5^3-dihydro-1^1H,5^1H-9-oxa-4-aza-5(2,1)-benzo[d]imidazola-2(2,4)-pyridina-1(4,5)-pyrazola-7(1,3)-cyclopentanacyclononaphane-5^6-yl)-2-(methoxymethyl)piperazin-1-yl)azetidin-1-yl)piperidin-1-yl)-2,6-difluorophenyl)piperidine-2,6-dione] | 95.9% | 7.7 nM | 100.3% | 0.6 nM | 3.32 nM | 87.3% | 0.75 nM | 77%
6 | Cc1cc2cc(n1)-c1cnn(C)c1OC[C@H]1CCC(C1)CN1/C(=N/C2=O)Nc2ccc(N3CCN(C4CCN(c5c(F)cc(OC6CCC(=O)NC6=O)cc5F)CC4)CC3)cc21 (stereo partly drawn) [Example 111, 3-(4-(4-(4-((7^1R,7^3S,E)-1^1,2^6-dimethyl-3-oxo-5^2,5^3-dihydro-1^1H,5^1H-9-oxa-4-aza-5(2,1)-benzo[d]imidazola-2(2,4)-pyridina-1(4,5)-pyrazola-7(1,3)-cyclopentanacyclononaphane-5^6-1)piperazin-1-yl)piperidin-1-yl)-3,5-difluorophenoxy)piperidine-2,6-dione] | 97.6% | 16.1 nM | 100.1% | 1 nM | 3.18 nM | 80.7% | 1.92 nM | 85.7%
7 | Cc1cc2cc(n1)-c1cnn(C)c1OC[C@H]1CC[C@H](C1)CN1/C(=N/C2=O)Nc2ccc(N3CCC(N4CC(Nc5cc(F)c([C@H]6CCC(=O)NC6=O)c(F)c5)C4)CC3)cc21 [Example 112, (R)-3-(4-((1-(1-((7^1R,7^3S,E)-1^1,2^6-dimethyl-3-oxo-5^2,5^3-dihydro-1^1H,5^1H-9-oxa-4-aza-5(2,1)-benzo[d]imidazola-2(2,4)-pyridina-1(4,5)-pyrazola-7(1,3)-cyclopentanacyclononaphane-5^6-yl)piperidin-4-yl)azetidin-3-yl)amino)-2,6-difluorophenyl)piperidine-2,6-dione] | 104.4% | 15.4 nM | 98.9% | 0.4 nM | 2.2 nM | 72.8% | 0.41 nM | 67.5%
8 | Cc1cc2cc(n1)-c1cnn(C)c1OC[C@H]1CCC(C1)CN1/C(=N/C2=O)Nc2ccc(N3CCC(N4CCC(Oc5cc(F)c([C@H]6CCC(=O)NC6=O)c(F)c5)CC4)CC3)cc21 [Example 113, (R)-3-(4-((1′-((7^1R,7^3S,E)-1^1,2^6-dimethyl-3-oxo-5^2,5^3-dihydro-1^1H,5^1H-9-oxa-4-aza-5(2,1)-benzo[d]imidazola-2(2,4)-pyridina-1(4,5)-pyrazola-7(1,3)-cyclopentanacyclononaphane-5^6-yl)-[1,4′-bipiperidin]-4-yl)oxy)-2,6-difluorophenyl)piperidine-2,6-dione] | 94.6% | 17.1 nM | 99% | 0.7 nM | 3.49 nM | 70.5% | 2.69 nM | 77.3%
9 | Cc1cc2cc(n1)-c1cnn(C)c1OC[C@H]1CCC(C1)CN1/C(=N/C2=O)Nc2ccc(N3CCN(C4(CO)CCN(c5ccc(C6CCC(=O)NC6=O)nc5C)CC4)CC3)cc21 (stereo partly drawn) [Example 114, 3-(5-(4-(4-((7^1R,7^3S,E)-1^1,2^6-dimethyl-3-oxo-5^2,5^3-dihydro-1^1H,5^1H-9-oxa-4-aza-5(2,1)-benzo[d]imidazola-2(2,4)-pyridina-1(4,5)-pyrazola-7(1,3)-cyclopentanacyclononaphane-5^6-yl)piperazin-1-yl)-4-(hydroxymethyl)piperidin-1-yl)-6-methylpyridin-2-yl)piperidine-2,6-dione] | 98.4% | 7.3 nM | 100.5% | 0.4 nM | 3.11 nM | 75.7% | 1.09 nM | 82%
